Data taken from PubChem BioAssay (NCI).
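Where inhibition never reached the appropriate level, the endpoint shown equals the highest concentration tested. Otherwise, values were interpolated linearly from a five-concentration, 48-hour dose response in 96-well plates. GI50 = concentration required for 50% inhibition of growth. TGI is the concentration that stops growth completely.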

What was measured:
Experiment in all cases: growth of human tumour cells (NCI), 48 h
[1] = system: 786-0 renal
[2] = system: A549 NSCLC
[3] = system: ACHN renal
[4] = system: BT-549 breast
[5] = system: CAKI-1 renal
[6] = system: CCRF-CEM leukemia
[7] = system: COLO 205 colon
[8] = system: DU-145 prostate
[9] = system: EKVX NSCLC
[10] = system: HCC-2998 colon
[11] = system: HCT-116 colon
[12] = system: HCT-15 colon
[13] = system: HL-60(TB) leukemia
[14] = system: HOP-62 NSCLC
[15] = system: HS 578T breast
[16] = system: HT29 colon
[17] = system: IGROV1 ovarian
[18] = system: K-562 leukemia
[19] = system: KM12 colon
[20] = system: M14 melanoma
[21] = system: MCF7 breast
[22] = system: MDA-MB-231 breast
[23] = system: MDA-MB-435
[24] = system: MOLT-4 leukemia
[25] = system: NCI-H226 lung
[26] = system: NCI-H23 lung
[27] = system: NCI-H460 lung
[28] = system: NCI-H522 lung
[29] = system: NCI/ADR-RES ovarian
[30] = system: OVCAR-3 ovarian
[31] = system: OVCAR-4 ovarian
[32] = system: OVCAR-8 ovarian
[33] = system: PC-3 prostate
[34] = system: RPMI-8226 leukemia
[35] = system: RXF 393 renal
[36] = system: SF-268 CNS
[37] = system: SF-295 CNS
[38] = system: SF-539 CNS
[39] = system: SK-MEL-28 melanoma
[40] = system: SK-MEL-5 melanoma
[41] = system: SK-OV-3 ovarian
[42] = system: SN12C renal
[43] = system: SNB-19 CNS
[44] = system: SNB-75 CNS
[45] = system: SR leukemia
[46] = system: SW-620 colon
[47] = system: T-47D breast
[48] = system: TK-10 renal
[49] = system: UACC-257 melanoma
[50] = system: UACC-62 melanoma
[51] = system: UO-31 renal
[52] = system: A498 renal
[53] = system: HOP-92 NSCLC
[54] = system: LOX IMVI melanoma
[55] = system: MALME-3M melanoma
[56] = system: OVCAR-5 ovarian
[57] = system: SK-MEL-2 melanoma
[58] = system: U251 CNS

COc1ccc(N2C(=O)C3c4[nH]c5ccc(C)cc5c4C4CCC(C(C)(C)C)CC4C3C2=O)cc1 (stereo not drawn)
TGI [1]: 48.7 µM | TGI [2]: > 100 µM | TGI [3]: 25.5 µM | TGI [4]: 67.9 µM | TGI [5]: 23.7 µM | TGI [6]: 16.7 µM | TGI [7]: > 100 µM | TGI [8]: > 100 µM | TGI [9]: > 100 µM | TGI [10]: > 100 µM | TGI [11]: 40.5 µM | TGI [12]: > 100 µM | TGI [13]: > 100 µM | TGI [14]: 33.4 µM | TGI [15]: 9.89 µM | TGI [16]: > 100 µM | TGI [17]: > 100 µM | TGI [18]: 41.2 µM | TGI [19]: > 100 µM | TGI [20]: 34.3 µM | TGI [21]: > 100 µM | TGI [22]: > 100 µM | TGI [23]: > 100 µM | TGI [24]: 34.9 µM | TGI [25]: 48.9 µM | TGI [26]: 86.5 µM | TGI [27]: 49.3 µM | TGI [28]: > 100 µM | TGI [29]: 33.2 µM | TGI [30]: 32 µM | TGI [31]: 10.8 µM | TGI [32]: 25.1 µM | TGI [33]: > 100 µM | TGI [34]: 82.1 µM | TGI [35]: 38.8 µM | TGI [36]: 64.5 µM | TGI [37]: 23.3 µM | TGI [38]: 36.5 µM | TGI [39]: 33.3 µM | TGI [40]: > 100 µM | TGI [41]: 29.5 µM | TGI [42]: > 100 µM | TGI [43]: 62.6 µM | TGI [44]: 7.7 µM | TGI [45]: 32.4 µM | TGI [46]: 69.8 µM | TGI [47]: > 100 µM | TGI [48]: 45.1 µM | TGI [49]: 77.8 µM | TGI [50]: 29.7 µM | TGI [51]: 40.3 µM

CCOC(=O)c1c(CN2CCN(c3ccccc3)CC2)n(-c2ccccc2)c2cc(Br)c(O)cc12
GI50 [1]: 5.23 µM | TGI [1]: 21.5 µM | GI50 [52]: 12.7 µM | TGI [52]: 26.8 µM | GI50 [2]: 3.58 µM | TGI [2]: > 100 µM | GI50 [3]: 8.39 µM | TGI [3]: 21.9 µM | GI50 [4]: 8.64 µM | TGI [4]: 23.9 µM | GI50 [5]: 15.3 µM | TGI [5]: 36.9 µM | GI50 [6]: 0.0602 µM | TGI [6]: > 100 µM | GI50 [7]: 21.3 µM | TGI [7]: 41.7 µM | GI50 [8]: 12.5 µM | TGI [8]: 28.2 µM | GI50 [9]: 11.2 µM | TGI [9]: 36.1 µM | GI50 [10]: 15.7 µM | TGI [10]: 32.5 µM | GI50 [11]: 4.39 µM | TGI [11]: 20.1 µM | GI50 [12]: 11.3 µM | TGI [12]: 38.6 µM | GI50 [13]: 4.12 µM | TGI [13]: > 100 µM | GI50 [14]: 17.2 µM | TGI [14]: 33.4 µM | GI50 [53]: 2.98 µM | TGI [53]: 11.7 µM | GI50 [15]: 14.4 µM | TGI [15]: > 100 µM | GI50 [16]: 11.8 µM | TGI [16]: 32.5 µM | GI50 [18]: 6.32 µM | TGI [18]: > 100 µM | GI50 [19]: 8.49 µM | TGI [19]: 39.9 µM | GI50 [54]: 3.1 µM | TGI [54]: 11.1 µM | GI50 [20]: 15 µM | TGI [20]: 41.6 µM | GI50 [55]: 16.5 µM | TGI [55]: 40.1 µM | GI50 [21]: 4.01 µM | TGI [21]: 47.5 µM | GI50 [22]: 15.7 µM | TGI [22]: 33.1 µM | GI50 [23]: 11.3 µM | TGI [23]: 34.4 µM | GI50 [24]: 3.56 µM | TGI [24]: 29.5 µM | GI50 [25]: 15.4 µM | TGI [25]: 30.9 µM | GI50 [26]: 14.9 µM | TGI [26]: 38.3 µM | GI50 [27]: 3.61 µM | TGI [27]: 21.3 µM | GI50 [28]: 16.1 µM | TGI [28]: 44.5 µM | GI50 [29]: 12.4 µM | TGI [29]: 41.7 µM | GI50 [30]: 13 µM | TGI [30]: 32.1 µM | GI50 [31]: 8.63 µM | TGI [31]: 24.6 µM | GI50 [56]: 9.98 µM | TGI [56]: 44.8 µM | GI50 [32]: 9.32 µM | TGI [32]: 57 µM | GI50 [33]: 3.21 µM | TGI [33]: 13.3 µM | GI50 [34]: 3.61 µM | TGI [34]: > 100 µM | GI50 [36]: 9.63 µM | TGI [36]: 41.4 µM | GI50 [37]: 4.7 µM | TGI [37]: 24.3 µM | GI50 [38]: 15.5 µM | TGI [38]: 34.9 µM | GI50 [57]: 17.2 µM | TGI [57]: 36.2 µM | GI50 [39]: 16.6 µM | TGI [39]: 42.1 µM | GI50 [40]: 8.82 µM | TGI [40]: 23.1 µM | GI50 [41]: 34 µM | TGI [41]: 80.9 µM | GI50 [42]: 5.68 µM | TGI [42]: 18.5 µM | GI50 [43]: 21 µM | TGI [43]: 53.5 µM | GI50 [44]: 17.7 µM | TGI [44]: 90.5 µM | GI50 [45]: 3.82 µM | TGI [45]: > 100 µM | GI50 [46]: 6.32 µM | TGI [46]: 48 µM | GI50 [47]: 7.59 µM | TGI [47]: 37.9 µM | GI50 [48]: 25 µM | TGI [48]: 58.9 µM | GI50 [58]: 6.43 µM | TGI [58]: 19 µM | GI50 [49]: 18.2 µM | TGI [49]: 50.9 µM | GI50 [50]: 16.1 µM | TGI [50]: 29.6 µM | GI50 [51]: 8.99 µM | TGI [51]: 23.1 µM
